Measurements taken from patent publication US20190352297A1, “SELECTIVE AURORA A KINASE INHIBITORS” (UNIVERSITAT BERN, priority 2017, published 2019).
pIC50: −log10 of the molar value. One block for each molecule: values may come before it.

Assays:
Aurora A kinase domain = target: T1, Aurora A kinase domain (Homo sapiens, UniProt O14965); experiment: HTRF kinase assay, Aurora A; type: biochemical
T1 construct: human Aurora A kinase domain (residues 122-403 in the pET24-d vector); His-tag (cleaved yes); made in house; host or cells: E. coli BL21 (DE3) Rosetta
T1 sequence (O14965 122-403): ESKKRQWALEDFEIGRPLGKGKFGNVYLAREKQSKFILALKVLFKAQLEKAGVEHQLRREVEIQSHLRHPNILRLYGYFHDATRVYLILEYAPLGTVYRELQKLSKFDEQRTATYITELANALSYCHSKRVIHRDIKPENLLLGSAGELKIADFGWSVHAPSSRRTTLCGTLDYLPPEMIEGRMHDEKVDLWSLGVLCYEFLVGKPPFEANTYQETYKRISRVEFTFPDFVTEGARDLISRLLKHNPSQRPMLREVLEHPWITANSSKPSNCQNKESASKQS
Description: The clone of human Aurora A kinase domain (residues 122-403 in the pET24-d vector) was kindly provided by the Montoya laboratory (University of Copenhagen). The construct was transformed into E. coli BL21 (DE3) Rosetta cells and protein expression was induced with 0.5 mM IPTG at 20° C. for 12 hours. The cells were harvested at 6,000×g for 25 min at 4° C. and resuspended in lysis buffer (50 mM Tris-HCl, 500 mM NaCl, 1 mM PMSF, pH=8.0). Disruption of the cells was performed by sonication cooled on ice, after which the debris were removed by centrifugation at 110,000×g for 30 min at 4° C. Aurora A was purified by affinity chromatography using NiNTA resin from Qiagen following the manufacturer's instructions. After loading, the resin was washed with lysis buffer, followed by a second wash with 6% elution buffer (50 mM Tris-HCl, 500 mM NaCl, 500 mM imidazole, pH=8.0). Protein was eluted with 100% elution buffer. The eluate was exchanged into final buffer (20 mM Tris-HCl, 200 mM NaCl, 0.5 mM EDTA, 2 mM DTT, pH=8.0) using a HiPrep 26/10 desalting column (GE Healthcare). The His-tag was cleaved with TEV protease at 4° C. overnight. […] Protein concentration was determined by UV absorbance. […]
Aurora A and AuroraB kinases were assayed using the homogeneous time-resolved fluorescence (HTRF) KinEASE STK2 kit from Cisbio (France). […] After incubation at room temperature for one hour, fluorescence was measured at 620 nm (europium cryptate) and 665 nm (XL-665) after excitation at 317 nm (lag time 60 μs, integration time 500 μs) using a Tecan Infinite M1000 PRO microplate reader (Greiner 384-well plates, white, non-binding, small volume). The ratio of fluorescence (665 nm/620 nm) was calculated for each well and the results were expressed as follows: specific signal=ratio (sample)−ratio (negative control), where ratio=665 nm/620 nm×10^4. Compounds were measured in threefold serial dilutions at 10 different concentrations, covering the concentration range from no to full inhibition. Each concentration was measured in duplicates, and two independent determinations were made for each IC50 value. […]

pThr288 Aurora A = experiment: Phosphorylation of Aurora A Thr288 in cells; type: cell-based, human
Description: (§1) HeLa Kyoto cells were cultured in high-glucose DMEM with GlutaMAX (Life Technologies) media supplemented with 10% fetal calf serum (FCS) in a humidified 5% CO2 incubator at 37° C. For plasmid transfections, cells were seeded at 80-90% confluence. 4 μg of plasmid DNA in 100 μl OptiMEM and 4 μl of Lipofectamine 2000 (Life Technologies) in 100 μl OptiMEM were incubated in parallel for 5 minutes, mixed for 20 minutes and added to each well. All Aurora A clones were constructed using full-length Aurora A as a template with appropriate PCR primer pairs. […] GFP-Aurora AR137A and GFP-Aurora AW277A were engineered using a site directed mutagenesis kit (Agilent Technologies, no. 210515) with appropriate primers. For determining the mitotic index and the chromosome misalignment phenotype, cells were incubated with various concentrations of compounds for 20 h before analysis. Cells were likewise treated with 0.25 μM MLN8237 (Selleckchem, no. S1133) or 5 μM ZM447439 (Selleckchem, no. S1103). For flow cytometry analysis, 50 nM […] and 2.5 μM ZM447439 were used. For rescue experiments, HeLa Kyoto cells were first transfected with GFP-Aurora A, GFP-Aurora AR137A or GFP-Aurora AW277A for 20 h, followed by incubation with 9 for another 20 h before cells were fixed with cold methanol and stained. To assess the impact of compound 9 on cell cycle progression, DNA content was analyzed after propidium iodide staining using FACS (BD Accuri C6 flow cytometer).
For immunofluorescence, cells were fixed in cold methanol, washed in PBT (PBS supplemented with 0.05% Tween-20) and stained with the following primary antibodies: 1:200 rabbit anti-pT288 (Cell Signaling, C39D8), 1:200 rabbit anti-pH3S10 (Cell Signaling, D2C8), 1:500 mouse anti-α-tubulin (Transduction Laboratories, 612709), 1:300 mouse anti-GFP (MAB3580, Millipore), 1:200 anti-TPX2 (Santa Cruz Biotechnology, sc-32863), anti-Aurora A (Invitrogen, 458900). Secondary antibodies were anti-mouse conjugated to Alexa488 or Alexa568, as well as anti-rabbit conjugated to Alexa488 or Alexa568, all used at 1:500 (Invitrogen). […]

HeLa Kyoto cells [1] = experiment: Chromosome misalignment during metaphase; type: cell-based, human; settings: HeLa Kyoto cells, 0.25 μM
Description: as §1
(§2) For immunofluorescence, cells were fixed in cold methanol, washed in PBT (PBS supplemented with 0.05% Tween-20) and stained with the following primary antibodies: 1:200 rabbit anti-pT288 (Cell Signaling, C39D8), 1:200 rabbit anti-pH3S10 (Cell Signaling, D2C8), 1:500 mouse anti-α-tubulin (Transduction Laboratories, 612709), 1:300 mouse anti-GFP (MAB3580, Millipore), 1:200 anti-TPX2 (Santa Cruz Biotechnology, sc-32863), anti-Aurora A (Invitrogen, 458900). Secondary antibodies were anti-mouse conjugated to Alexa488 or Alexa568, as well as anti-rabbit conjugated to Alexa488 or Alexa568, all used at 1:500 (Invitrogen). Confocal images were acquired on a Zeiss LSM 710 confocal microscope equipped with a Axiocam MRm (B/VVW) CCD camera using a 63×NA 1.0 oil objective and processed in ImageJ and Adobe Photoshop, maintaining relative image intensities within a series.

[2] = test system: Aurora A localization, HeLa Kyoto cells; experiment: Aurora A localization at the mitotic spindle (immunofluorescence); type: cell-based, human; settings: overnight
Description: as §1
Secondary antibodies were anti-mouse conjugated to Alexa488 or Alexa568, as well as anti-rabbit conjugated to Alexa488 or Alexa568, all used at 1:500 (Invitrogen). Confocal images were acquired on a Zeiss LSM 710 confocal microscope equipped with a Axiocam MRm (B/VVW) CCD camera using a 63×NA 1.0 oil objective and processed in ImageJ and Adobe Photoshop, maintaining relative image intensities within a series.

Aurora A (pT288) = settings: read-out: cellular IC50 (pT288) (reported); cited from earlier work
Aurora B (pH3) = settings: pH 3; read-out: cellular IC50 (pH3) (reported); cited from earlier work
Aurora A (Trp277) = target: T2, Aurora A (Trp277) (Homo sapiens, UniProt O14965); experiment: Intrinsic tryptophan fluorescence; type: binding
T2 construct: human Aurora A kinase domain (residues 122-403 in the pET24-d vector); His-tag (cleaved yes); made in house; host or cells: E. coli BL21 (DE3) Rosetta
T2 sequence (O14965 122-403): T1 sequence (O14965 122-403)
Description: Binding experiments were performed by mixing Aurora A (500 nM, 375 nM, and 150 nM for 77, 9, and 88, respectively) with varying concentrations (0-100 μM) of the different compounds in buffer (final DMSO concentration 1%), followed by incubation for 15 min at room temperature. Tryptophan fluorescence spectra were recorded at room temperature using an Infinite M1000 Pro plate reader (Tecan) and Corning 96 well half area, flat bottom, non-binding surface, black polystyrene plates. Excitation occurred at 284 nm (bandwidth ±5 nm) and emission at 340 nm (bandwidth ±10 nm). The gain was calculated from the well with the highest protein concentration. Each measurement was done in triplicate.

[3] = test system: phospho-Histone H3 Ser10 (Aurora B); experiment: Phospho-Histone H3 Ser10 in cells (Aurora B activity); type: cell-based, human; settings: treated cells
Description: as §1, §2

HeLa Kyoto cells [4] = experiment: DNA content analysis by flow cytometry; type: cell-based, human; settings: 48 h, 9 even at 10 μM
Description: as §1, with “For rescue experiments, HeLa Kyoto cells were first transfected with GFP-Aurora A, GFP-Aurora AR137A or GFP-Aurora AW277A for 20 h, followed by incubation with 9 for another 20 h before cells were fixed with cold methanol and stained.” left out

fold less active than precursor 79 (Aurora A kinase domain; Aurora A inhibition relative to 79): 7 fold
SMILES: CCc1ccc(N=C2SC(Cc3ccnc(N)c3)C(=O)N2C)cc1 (racemic) [rac-91]

pIC50 (Aurora A kinase domain; free Aurora A, 20 μM ATP, HTRF, read-out: IC50 Aurora A (biochemical)): 7.62
SMILES: CCc1ccc(N=C2SC(Cc3ccnc(Nc4ccc(C(=O)O)cn4)c3)C(=O)N2C)cc1 (racemic) [rac-92]
activity in cells (pThr288 Aurora A): did not show any activity | cellular pThr288 Aurora-A levels (pThr288 Aurora A; overnight incubation): does not reduce pThr288 levels

SMILES: COc1cc(Nc2ncc3c(n2)-c2ccc(Cl)cc2C(c2c(F)cccc2OC)=NC3)ccc1C(=O)O [Compound 1, Alisertib, reference compound]
misaligned chromosomes (HeLa Kyoto cells [1]): ~100% | Aurora A localization at spindle microtubules and centrosomes [2]: present at centrosomes but not on spindle microtubules | Aurora A localization at spindle microtubules and centrosomes ([2]; listed as alisertib): notably displaced from the spindle microtubules | pIC50 (Aurora A (pT288)): […] | pIC50 (Aurora B (pH3)): […]

tryptophan fluorescence, environment of Trp277 (Aurora A (Trp277)): perturbed the environment of Trp277
SMILES: CCc1ccc(N=C2SC(=Cc3ccncc3)C(=O)N2CCOC)cc1 [Compound 77]

SMILES: CCc1ccc(N=C2SC(=Cc3ccnc(Nc4ccc(-c5nn[nH]n5)cc4)c3)C(=O)N2C)cc1 [Compound 88]
tryptophan fluorescence, environment of Trp277 (Aurora A (Trp277)): perturbed the environment of Trp277

SMILES: COc1cc2c(Nc3ccc(NC(=O)c4ccccc4)cc3)ncnc2cc1OCCCN1CCOCC1 [Compound 94, ZM447439, reference compound]
distribution of phospho-Histone H3 Ser10 [3]: absent | accumulation of cells with 8N and 16N DNA contents (HeLa Kyoto cells [4]): massive accumulation

SMILES: O=C(O)[C@]1(Cc2cccc(Nc3nccs3)n2)CC[C@@H](Oc2cccc(Cl)c2F)CC1 [MK-5108]
pIC50 (Aurora A (pT288)): […] | pIC50 (Aurora B (pH3)): < 5.00
